# From patent publication US20110256238A1, “WOOD PRESERVATIVE AND WOOD PROCESSING METHOD” (SDS BIOTECH K.K., priority 2008, published 2011)
# System: Coniphora puteana
# Assay: Agar medium colony growth inhibition test on Coniphora puteana
# Assay type: cell-based
# Settings: 0.2 ppm in potato dextrose agar, 25° C., colony diameter on the seventh day vs control
# Method: A predetermined amount of the solutions diluted with dimethylsulfoxide were fully mixed in the sterilized potato dextrose agar medium, and 15 ml of the resultant medium was poured into a petri dish 90 mm in diameter and allowed to stand at room temperature. As a control, the potato dextrose agar medium added with dimethylsulfoxide only was also prepared. […] The fungi was cultivated in the petri dish at 25° C., and the diameter of the colony spread from the source of inoculum was measured on the seventh day. The growth inhibition ratio between the diameter of the test colony and that of the control was determined by the following formula as an indication of the degree of inhibition. Compound A apparently had greater effects on Coniphora puteana compared to the compounds which had been disclosed in the past. Growth inhibition ratio (%)={(diameter of the control colony−diameter of the test colony)/diameter of the control colony}×100 [Formula 1]
row,Structure (SMILES),Degree of inhibition on Coniphora puteana at 0.2 ppm
1,"CC(C)Oc1cccc(NC(=O)c2ccccc2C(F)(F)F)c1 [compound 1, 3′-isopropoxy-2-trifloromethyl benzoic acid anilide]",▴ (inhibition ratio of 25 to 50%)
2,"Cc1ccccc1C(=O)Nc1cccc(OC(C)C)c1 [compound 2, 3′-isopropoxy-2-methyl benzoic acid anilide]",▴ (inhibition ratio of 25 to 50%)
3,"Cc1ccccc1C(=O)Nc1cccc(C(C)C)c1 [compound 3, 3′-isopropyl-2-methyl benzoic acid anilide]",▴ (inhibition ratio of 25 to 50%)
4,"CC(C)c1cccc(NC(=O)c2ccccc2I)c1 [compound 4, 3′-isopropyl-2-iodobenzoic acid anilide]",▴ (inhibition ratio of 25 to 50%)
5,"CC(C)Oc1cccc(NC(=O)c2ccccc2I)c1 [compound 5, 3′-isopropoxy-2-iodobenzoic acid anilide]",▴ (inhibition ratio of 25 to 50%)
6,"CC(C)c1cccc(NC(=O)c2ccccc2[N+](=O)[O-])c1 [compound 6, 3′-isopropyl-2-nitrobenzoic acid anilide]",x (inhibition ratio of 25% or less)
7,"CC(C)c1cccc(NC(=O)c2ccccc2Br)c1 [compound 7, 3′-isopropyl-2-bromobenzoic acid anilide]",▴ (inhibition ratio of 25 to 50%)
8,"O=C(Nc1ccccc1)c1ccccc1C(F)(F)F [compound 8, 2-trifloromethyl benzoic acid anilide]",x (inhibition ratio of 25% or less)
9,"CC(C)c1ccccc1NC(=O)c1ccccc1C(F)(F)F [compound 9, 2′-isopropyl-2-trifloromethyl benzoic acid anilide]",x (inhibition ratio of 25% or less)
10,"CC(C)c1ccc(NC(=O)c2ccccc2C(F)(F)F)cc1 [compound 10, 4′-isopropyl-2-trifloromethyl benzoic acid anilide]",x (inhibition ratio of 25% or less)
11,"Cc1cccc(NC(=O)c2ccccc2C(F)(F)F)c1 [compound 11, 3′-methyl-2-trifloromethyl benzoic acid anilide]",▴ (inhibition ratio of 25 to 50%)
12,"CCc1cccc(NC(=O)c2ccccc2C(F)(F)F)c1 [compound 12, 3′-ethyl-2-trifloromethyl benzoic acid anilide]",▴ (inhibition ratio of 25 to 50%)
13,"O=C(Nc1cccc(C(F)(F)F)c1)c1ccccc1C(F)(F)F [compound 13, 2,3′-trifluoromethyl benzoic acid anilide]",x (inhibition ratio of 25% or less)
14,"O=C(Nc1cccc(OC(F)(F)F)c1)c1ccccc1C(F)(F)F [compound 14, 3′-trifluoromethoxy-2-trifloromethyl benzoic acid anilide]",x (inhibition ratio of 25% or less)
15,"O=C(Nc1cccc(F)c1)c1ccccc1C(F)(F)F [compound 15, 3′-fluoro-2-trifloromethyl benzoic acid anilide]",x (inhibition ratio of 25% or less)
16,"O=C(Nc1cccc(Cl)c1)c1ccccc1C(F)(F)F [compound 16, 3′-chloro-2-trifloromethyl benzoic acid anilide]",x (inhibition ratio of 25% or less)
17,"O=C(Nc1cccc(Br)c1)c1ccccc1C(F)(F)F [compound 17, 3′-bromo-2-trifloromethyl benzoic acid anilide]",x (inhibition ratio of 25% or less)
18,"O=C(Nc1cccc(I)c1)c1ccccc1C(F)(F)F [compound 18, 3′-iodo-2-trifloromethyl benzoic acid anilide]",x (inhibition ratio of 25% or less)
19,"Cc1ccc(C(C)C)cc1NC(=O)c1ccccc1C(F)(F)F [compound 19, 5′-isopropyl-2′-methyl-2-trifluoromethyl benzoic acid anilide]",x (inhibition ratio of 25% or less)

# Same assay, conditions: 0.2 ppm in potato dextrose agar, 25° C., colony diameter on the seventh day vs control; read-out: Degree of inhibition on Coniphora puteana at 0.2 ppm
row,Structure (SMILES),inhibition at 0.2 ppm [%]
1,"CC(C)c1cccc(NC(=O)c2ccccc2C(F)(F)F)c1 [Compound A, 3′-isopropyl-2-trifluoromethyl benzoic acid anilide]",≥ 75

# System: Trametes versicolor
# Assay: Agar medium colony growth inhibition test on Trametes versicolor, with Colby synergy calculation
# Assay type: cell-based
# Settings: single compound, 0.2 ppm, potato dextrose agar, 25° C., seventh day
# Method: Each of 1% w/v dimethylsulfoxide solution of compound A, cyproconazole (manufactured by Wako Pure Chemical Industries, Ltd.), epoxyconazole (manufactured by Wako Pure Chemical Industries, Ltd.) and tetraconazole (manufactured by Wako Pure Chemical Industries, Ltd.) was prepared. The solutions diluted with dimethylsulfoxide were fully mixed in the sterilized potate dextrose agar medium, and 15 ml of the resultant medium was poured into a petri dish 90 mm in diameter and allowed to stand at room temperature. As a control, the potate dextrose agar medium added with dimethylsulfoxide only was also prepared. After the medium was solidified, the mycelia was scooped with the medium from the colony of Trametes versicolor as being a typical wood-decaying fungi, which had been cultivated in advance, using a cork baller 5 mm in diameter; and inoculated in the center of the test medium. The fungi was cultivated in the petri dish at 25° C., and the diameter of the colony spread from the source of inoculum was measured on the seventh day. The growth inhibition ratio by comparing the diameter of the test colony to that of the control was determined by the above-mentioned formula as an indication of the actual measured growth inhibition ratio. The theoretical efficacy ratio of the mixture of the active ingredients (i.e. theoretical growth inhibition ratio) was determined using the following Colby's formula (R. S. Colby, Weeds 15, 20-22 (1967)) to thereby be compared with the actual-measured efficacy ratio ([…]).
# Colby's formula: E=x+y−x·y/100 [Formula 2]
# E: theoretical efficacy ratio (theoretical growth inhibition ratio) represented by the ratio (%) to the control when the mixture of active compound B (concentration b) and C (concentration c) was used. x: efficacy ratio (growth inhibition ratio) represented by the ratio (%) to the control when active compound B was used at a concentration of b. y: efficacy ratio (growth inhibition ratio) represented by the ratio (%) to the control when active compound C was used at a concentration of c.
row,Structure (SMILES),Actual measured growth inhibition ratio (%)
1,Fc1ccc([C@]2(Cn3cncn3)O[C@H]2c2ccccc2Cl)cc1 (racemic) [Epoxiconazole],24
2,"CC(C)c1cccc(NC(=O)c2ccccc2C(F)(F)F)c1 [Compound A, 3′-isopropyl-2-trifluoromethyl benzoic acid anilide]",35
3,FC(F)C(F)(F)OCC(Cn1cncn1)c1ccc(Cl)cc1Cl (stereo not shown) [Tetraconazole],25
4,CC(C1CC1)C(O)(Cn1cncn1)c1ccc(Cl)cc1 (stereo not shown) [cyproconazole],33

# System: not given
# Assay: not given
# Settings: not given
row,Structure (SMILES),melting point [°C]
1,"CC(C)c1cccc(NC(=O)c2ccccc2C(F)(F)F)c1 [Compound A, 3′-isopropyl-2-trifluoromethyl benzoic acid anilide]",98 to 101
